Results: patent publication EP0607373B1, “TRISUBSTITUTED PHENYL DERIVATIVES AS SELECTIVE PHOSPHODIESTERASE IV INHIBITORS” (CELLTECH THERAPEUTICS LIMITED, priority 1992, dated 1993)
pKi: −log10 of the molar value.

Tests used:
PDE IV, HL60 cells = assay: Isolated enzyme phosphodiesterase assay, PDE IV; type: biochemical; details: 0.1µM [3H]-cAMP, 30°C, pH 7.5, read-out: approximate Ki values (Ki PDE IV HL60 at (1µM))
Experimental: The potency and selectivity of the compounds of the invention was determined using a battery of distinct PDE isoenzymes as follows: • i. PDE I, rabbit heart • ii. PDE II, rabbit heart • iii. PDE III, rabbit heart • iv. PDE IV, HL60 cells.
The enzymes were purified to kinetic homogeneity using standard chromatographic techniques.
Phosphodiesterase activity was assayed as follows. The reaction was conducted in 150µl of standard mixture containing (final concentrations): 50mM TES-NaOH buffer (pH 7.5), 10mM MgCl2, 0.1µM [^3H]-cAMP and vehicle or various concentrations of the test compounds. The reaction was initiated by addition of enzyme and conducted at 30°C for between 5 to 30 mins. The reaction was terminated by addition of 50µl 2% trifluoroacetic acid containing [^14C]-5'AMP for determining recovery of the product. An aliquot of the sample was then applied to a column of neutral alumina and the [^3H]-cAMP eluted with 10ml 0.1 TES-NaOH buffer (pH8). The [^3H]-5'-AMP product was eluted with 2ml 2M NaOH into a scintillation vial containing 10ml of scintillation cocktail. Recovery of [^3H]-5'AMP was determined using the [^14C]-5'AMP and all assays were conducted in the linear range of the reaction.

[1] = system: Right atrial and papillary muscles; details: reference inhibitors, general statement on these preparations; cited from earlier work

Structure (SMILES)	pKi (PDE IV, HL60 cells)	direct effects on isolated cardiac muscle (chronotropic, inotropic) [1]
COc1ccc(NC(=O)c2ccccc2)cc1OC1CCCC1 [Example 1, N-Benzoyl-3-cyclopentyloxy-4-methyloxyaniline]	~6.41	–
COc1ccc(NC(=O)c2ccccc2[N+](=O)[O-])cc1OC1CCCC1 [Example 3, 3-Cyclopentyloxy-4-methyloxy-N-(2-Nitrobenzoyl)aniline]	~6.75	–
Cc1[nH]c(=O)c(C#N)cc1-c1ccncc1 [milrinone]	–	positive chronotropic and inotropic effects
COc1ccc(C2CNC(=O)C2)cc1OC1CCCC1 (stereo not shown) [rolipram]	–	do not have any direct effects
